Data on 2 compounds can be found in PMC12621175, “Scaffold Fusion and SAR Transfer with a Chemical Language Model Generates Novel Liver X Receptor Modulators” (Journal of Medicinal Chemistry, 2025).

Holding throughout (assay type): cell-based
Series [1] relates to LXR/retinoid X receptor (RXR) heterodimer. As to the kind of experiment: full-length LXR assay (LXR-responsive ABCA1 reporter, endogenous LXR) in HEK293T and HepG2 cells. To be noted: vs 0.1% DMSO. The source says:
Intrigued by the initial data on LXR modulation, we further investigated the mode-of-action of designs 1-3. As the Gal4 hybrid reporter gene assay is artificial and overexpresses LXR, we next examined LXR modulation by 1-3 in a full-length LXR assay (Figure a) based on the endogenous expression of the LXR/retinoid X receptor (RXR) heterodimer (Figure S2). Upon activation, LXR binds to response elements within the ATP-binding cassette transporter A1 (ABCA1, an LXR target gene) promoter of the reporter. […] The designs were next checked for antiproliferative effects that may compromise further in vitro characterization. […] Therefore, and due to the weak efficacy of 2, we focused further biological characterization on 1 and 3.
(§1) For the hybrid reporter gene assays, the previously reported Gal4-fusion receptor plasmids pFA-CMV-hRORα-LBD, pFA-CMV-hRORβ-LBD, pFA-CMV-hRORγ-LBD, pFA-CMV-hLXRα-LBD, pFA-CMV-hLXRβ-LBD, pFA-CMV-hFXR-LBD, pFA-CMV-hPXR-LBD, and pFA-CMV-hRXRα-LBD, coding for the hinge region, and LBD of the canonical isoform of the respective nuclear receptor were used. pFR-Luc (Stratagene) was used as the reporter plasmid, and pRL-SV40 (Promega) was used in all assays for the normalization of transfection efficiency and cell growth. pECE-SV40-Gal4-VP16 was a gift from Lea Sistonen (Addgene plasmid #71728). The LXR-responsive reporter ABCA1-pGL3 was used for the full-length reporter gene assay.
(§2) The day before transfection, HEK293T cells were seeded in 96-well plates (4 × 10^4 cells/well). Before transfection, the medium was changed to Opti-MEM without any supplements. […] Luminescence was measured with a Spark 10 M luminometer (Tecan Deutschland GmbH). […] EC50/IC50 values and the standard errors thereof were calculated with the mean fold activation values by OriginPro, Version 2025 (OriginLab Corporation, Northampton, MA, USA), fitting a dose–response curve with a variable Hill slope (Levenberg–Marquardt algorithm). […]

Series [2] addresses T1, FXR (NR1H4) (Homo sapiens, UniProt Q96RI1).
T1 construct: coding for the hinge region, and LBD of the canonical isoform of the respective nuclear receptor; expressed in transfected cells; host or cells: HEK293T
T1 sequence (Q96RI1 262-486 limits assumed): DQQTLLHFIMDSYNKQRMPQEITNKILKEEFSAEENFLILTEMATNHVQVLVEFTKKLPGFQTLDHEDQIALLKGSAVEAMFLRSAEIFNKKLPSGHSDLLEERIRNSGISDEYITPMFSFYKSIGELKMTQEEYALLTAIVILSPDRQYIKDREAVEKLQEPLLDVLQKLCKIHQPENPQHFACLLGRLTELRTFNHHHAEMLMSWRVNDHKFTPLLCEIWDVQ
The series can be described thus: Gal4-FXR hybrid reporter gene assay (off-target profiling). To be noted: compared with T0901317.
Description: as §1, §2
For orientation: In a reporter assay the amount or activity of a reporter protein is the signal.

The target of series [3] is T2, PXR (NR1I2) (Homo sapiens, UniProt O75469).
T2 construct: coding for the hinge region, and LBD of the canonical isoform of the respective nuclear receptor; expressed in transfected cells; host or cells: HEK293T
T2 sequence (O75469 146-433 limits assumed): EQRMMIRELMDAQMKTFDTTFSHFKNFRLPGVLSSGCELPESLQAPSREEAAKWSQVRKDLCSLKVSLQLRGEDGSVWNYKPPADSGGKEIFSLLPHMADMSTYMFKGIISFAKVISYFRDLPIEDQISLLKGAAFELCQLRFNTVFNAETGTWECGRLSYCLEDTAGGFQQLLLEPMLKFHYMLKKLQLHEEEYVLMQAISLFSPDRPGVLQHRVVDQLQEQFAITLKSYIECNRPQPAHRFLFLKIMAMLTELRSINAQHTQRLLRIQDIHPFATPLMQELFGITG
The series can be described thus: Gal4-PXR hybrid reporter gene assay (off-target profiling). To be noted: compared with T0901317.
Description: as §1, §2

For series [4], the target named is T3, RXRα (Homo sapiens, UniProt P19793).
T3 construct: coding for the hinge region, and LBD of the canonical isoform of the respective nuclear receptor; expressed in transfected cells; host or cells: HEK293T
T3 sequence (P19793 227-458 limits assumed): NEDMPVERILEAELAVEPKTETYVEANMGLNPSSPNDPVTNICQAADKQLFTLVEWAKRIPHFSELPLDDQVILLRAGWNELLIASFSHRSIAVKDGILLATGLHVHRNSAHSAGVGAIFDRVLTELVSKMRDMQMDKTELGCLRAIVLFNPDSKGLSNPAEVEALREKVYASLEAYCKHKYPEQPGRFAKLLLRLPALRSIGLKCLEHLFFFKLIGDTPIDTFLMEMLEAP
As to the kind of experiment: Gal4-RXRα hybrid reporter gene assay (control). To be noted: 30 μM; alone and in competition with bexarotene 1 μM.
Description: as §1
(§3) The day before transfection, HEK293T cells were seeded in 96-well plates (4 × 10^4 cells/well). […] Luminescence was measured with a Spark 10 M luminometer (Tecan Deutschland GmbH). […] EC50/IC50 values and the standard errors thereof were calculated with the mean fold activation values by OriginPro, Version 2025 (OriginLab Corporation, Northampton, MA, USA), fitting a dose–response curve with a variable Hill slope (Levenberg–Marquardt algorithm). […]
(§4) mediated inhibition of the LXR/RXR heterodimer. […] (c) Quantification of LXR expression on mRNA level in HEK293T and HepG2 cell lines using qRT -PCR. Expression levels were calculated according to the 2 -ΔCt method relative to GAPDH. […]

The subject of series [5] is Gal4-VP16. The series can be described thus: Gal4-VP16 control experiment (ligand-independent transcriptional activator). To be noted: 30 μM; vs 0.1% DMSO.
Description: as §1, §3, §4

Structures are written as SMILES. “Also recorded” adds a separate entry of the source.

For `CCN(C(=O)c1ccccc1)c1ccc(C(O)(C(F)(F)F)C(F)(F)F)cc1` [Compound 1, N-Ethyl-N-(4-[1,1,1,3,3,3-hexafluoro-2-hydroxypropan-2-yl]phenyl)benzamide], the “LXR modulation in LXR-responsive ABCA1 reporter gene assay” value in series [1] (3 μM) was “partial LXR agonists; also recorded: partial LXR agonism”. Also, the FXR activity entry in series [2] is “no activity; also recorded: did not affect”. The PXR activity entry in series [3] is “reduced activity; also recorded: PXR agonism was retained”.

Take `CS(=O)(=O)c1cccc(-c2ccc(CN(Cc3cccc(C(F)(F)F)c3Cl)CC(c3ccccc3)c3ccccc3)cc2)c1` [Compound 3, N-(2-Chloro-3-[trifluoromethyl]benzyl)-N-([3′-{methylsulfonyl}-{1,1′-biphenyl}-4-yl]methyl)-2,2-diphenylethan-1-amine]: the “LXR modulation in LXR-responsive ABCA1 reporter gene assay” value in series [1] (10 μM) is given as “robustly blocked LXR activation; also recorded: inverse agonist”. The RXR modulation entry in series [4] is reported as “neither activated RXR nor competed with literature RXR agonist bexarotene”. Also, in series [5], the “influence on Gal4-VP16-mediated luciferase reporter expression” value is listed as “no influence”.
